Data set [1] concerns MDA-MB-231. Kind of data set: Antiproliferative activity against human MDA-MB-231 cells assessed as inhibition of cell growth incubated for 24 hrs by MTT assay. Type of data set: functional, cell-based. To be noted: MDA-MB-231, 24 h. In general terms: Tetrazolium dyes change colour on reduction, which living cells bring about.
The subject of data set [2] is MDA-MB-468. Kind of data set: Antiproliferative activity against human MDA-MB-468 cells assessed as inhibition of cell growth incubated for 24 hrs by MTT assay. It is filed as functional, cell-based. To be noted: MDA-MB-468, 24 h.
The test system of data set [3] is MDA-MB-436. As to the kind of experiment: Antiproliferative activity against human MDA-MB-436 cells assessed as inhibition of cell growth incubated for 24 hrs by MTT assay. It is filed as functional, cell-based.
Data set [4] concerns the target T1, Cyclin-dependent kinase 12 (Homo sapiens, UniProt Q9NYV4). Kind of data set: Inhibition of CDK12 (unknown origin) at 1 uM in presence of ATP by kinase-glo plus luminescent assay relative to control.
Target sequence in this assay (Q9NYV4 whole entry, looked up): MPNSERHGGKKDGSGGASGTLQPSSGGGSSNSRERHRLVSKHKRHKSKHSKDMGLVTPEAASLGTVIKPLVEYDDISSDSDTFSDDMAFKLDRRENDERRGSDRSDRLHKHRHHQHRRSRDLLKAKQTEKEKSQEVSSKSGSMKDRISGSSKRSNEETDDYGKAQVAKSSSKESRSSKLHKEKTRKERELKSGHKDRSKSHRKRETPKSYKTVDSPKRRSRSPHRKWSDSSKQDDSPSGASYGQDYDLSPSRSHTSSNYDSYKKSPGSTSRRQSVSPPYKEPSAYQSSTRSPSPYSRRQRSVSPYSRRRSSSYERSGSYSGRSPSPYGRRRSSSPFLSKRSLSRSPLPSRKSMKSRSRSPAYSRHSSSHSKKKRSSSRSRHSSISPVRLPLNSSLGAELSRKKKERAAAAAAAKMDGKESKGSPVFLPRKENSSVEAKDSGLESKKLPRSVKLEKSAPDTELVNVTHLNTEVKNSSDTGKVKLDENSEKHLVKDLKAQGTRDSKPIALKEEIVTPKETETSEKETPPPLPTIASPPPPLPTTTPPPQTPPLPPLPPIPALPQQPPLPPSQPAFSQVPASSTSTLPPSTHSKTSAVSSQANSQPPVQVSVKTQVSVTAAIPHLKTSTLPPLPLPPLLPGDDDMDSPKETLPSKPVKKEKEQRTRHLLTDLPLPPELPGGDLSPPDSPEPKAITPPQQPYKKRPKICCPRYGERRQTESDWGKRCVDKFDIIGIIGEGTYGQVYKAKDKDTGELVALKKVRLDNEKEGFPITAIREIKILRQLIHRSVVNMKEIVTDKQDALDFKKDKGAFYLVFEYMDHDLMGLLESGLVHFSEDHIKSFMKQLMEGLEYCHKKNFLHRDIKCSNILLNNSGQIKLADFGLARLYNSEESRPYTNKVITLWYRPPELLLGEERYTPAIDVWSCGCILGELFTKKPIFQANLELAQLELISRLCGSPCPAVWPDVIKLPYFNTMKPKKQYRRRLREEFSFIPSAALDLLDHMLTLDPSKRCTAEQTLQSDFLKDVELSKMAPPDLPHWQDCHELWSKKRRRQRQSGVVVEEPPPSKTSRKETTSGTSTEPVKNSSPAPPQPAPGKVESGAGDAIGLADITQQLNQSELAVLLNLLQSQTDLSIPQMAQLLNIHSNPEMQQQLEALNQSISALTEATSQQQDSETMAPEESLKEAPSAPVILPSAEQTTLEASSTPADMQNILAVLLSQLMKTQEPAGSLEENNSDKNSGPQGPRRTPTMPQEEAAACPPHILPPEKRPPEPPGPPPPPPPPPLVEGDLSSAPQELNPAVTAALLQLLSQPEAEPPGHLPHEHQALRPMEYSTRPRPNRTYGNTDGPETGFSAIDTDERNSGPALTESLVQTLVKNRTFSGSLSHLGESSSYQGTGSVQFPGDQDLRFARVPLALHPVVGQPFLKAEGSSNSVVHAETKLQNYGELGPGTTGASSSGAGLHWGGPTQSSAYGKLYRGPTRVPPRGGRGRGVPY
Data set [5] addresses T1, Cyclin-dependent kinase 12. As to the kind of experiment: Inhibition of CDK12 (unknown origin) in presence of ATP by kinase-glo plus luminescent assay.
Target sequence in this assay (Q9NYV4 whole entry): as the sequence (Q9NYV4 whole entry, looked up) above
In data set [6] the target is Poly [ADP-ribose] polymerase 1 (Homo sapiens, UniProt P09874). As to the kind of experiment: Inhibition of PARP1 (unknown origin) incubated for 1 hr by ELISA analysis.
The target in data set [7] is Poly [ADP-ribose] polymerase 2 (Homo sapiens, UniProt Q9UGN5). Kind of data set: Inhibition of PARP2 (unknown origin) incubated for 1 hr by ELISA analysis. (In an ELISA, binding on a coated surface is turned into a signal by an enzyme label.)
A short description of data set [8]: Metabolic stability in human liver microsome assessed as half life in presence of NADPH incubated upto 60 mins by LC-MS/MS analysis. Type of data set: ADME. To be noted: liver microsomes. (Liver microsomes are a subcellular fraction often used to study metabolism.)
Data set [9] in a line: Metabolic stability in human liver microsome assessed as intrinsic clearance in presence of NADPH incubated upto 60 mins by LC-MS/MS analysis. It is filed as ADME. To be noted: liver microsomes, read-out: CLH.
Data set [10] in a line: Metabolic stability in BALB/c mouse liver microsome assessed as half life in presence of NADPH incubated upto 60 mins by LC-MS/MS analysis. Type of data set: ADME. To be noted: liver microsomes.
A short description of data set [11]: Metabolic stability in BALB/c mouse liver microsome assessed as intrinsic clearance in presence of NADPH incubated upto 60 mins by LC-MS/MS analysis. To be noted: liver microsomes, read-out: CLH. It is filed as ADME.
The test system of data set [12] is MDA-MB-231. Kind of data set: Antiproliferative activity against human MDA-MB-231 cells assessed as inhibition of cell growth incubated for 48 hrs by MTT assay. It is filed as functional, cell-based. To be noted: MDA-MB-231, 48 h.
Data set [13] has as its system MDA-MB-468. Kind of data set: Antiproliferative activity against human MDA-MB-468 cells assessed as inhibition of cell growth incubated for 48 hrs by MTT assay. It is filed as functional, cell-based. To be noted: MDA-MB-468, 48 h.
For data set [14], the system named is MDA-MB-468. As to the kind of experiment: Antiproliferative activity against human MDA-MB-468 cells assessed as inhibition of cell growth incubated for 72 hrs by MTT assay. Type of data set: functional, cell-based. To be noted: MDA-MB-468, 72 h.
For data set [15], the system named is MDA-MB-436. Kind of data set: Antiproliferative activity against human MDA-MB-436 cells assessed as inhibition of cell growth incubated for 48 hrs by MTT assay. Type of data set: functional, cell-based. To be noted: MDA-MB-436, 48 h.
The subject of data set [16] is MDA-MB-436. Kind of data set: Antiproliferative activity against human MDA-MB-436 cells assessed as inhibition of cell growth incubated for 72 hrs by MTT assay. Type of data set: functional, cell-based. To be noted: MDA-MB-436, 72 h.
The test system of data set [17] is MDA-MB-231. Kind of data set: Synergistic antiproliferative activity against human MDA-MB-231 cells in presence of Olaparib incubated for 24 hrs by MTT assay. It is filed as functional, cell-based.
Data set [18] has as its system MDA-MB-231. Kind of data set: cells. To be noted: Homo sapiens, MDA-MB-231, 72 h.

Values joined by “and” are separate entries in the source; they are usually repeats but may differ in a detail not shown here. Identical values can stand only once. Active and inactive are the calls of the source.

Usually IC50 stands for the concentration that gives 50% inhibition. Broadly, the inhibition is the drop in the measured response relative to a control, in per cent. For orientation: half-life means the time needed for the level to fall by half in the phase considered.

Sequence of Poly [ADP-ribose] polymerase 1 (P09874 whole entry): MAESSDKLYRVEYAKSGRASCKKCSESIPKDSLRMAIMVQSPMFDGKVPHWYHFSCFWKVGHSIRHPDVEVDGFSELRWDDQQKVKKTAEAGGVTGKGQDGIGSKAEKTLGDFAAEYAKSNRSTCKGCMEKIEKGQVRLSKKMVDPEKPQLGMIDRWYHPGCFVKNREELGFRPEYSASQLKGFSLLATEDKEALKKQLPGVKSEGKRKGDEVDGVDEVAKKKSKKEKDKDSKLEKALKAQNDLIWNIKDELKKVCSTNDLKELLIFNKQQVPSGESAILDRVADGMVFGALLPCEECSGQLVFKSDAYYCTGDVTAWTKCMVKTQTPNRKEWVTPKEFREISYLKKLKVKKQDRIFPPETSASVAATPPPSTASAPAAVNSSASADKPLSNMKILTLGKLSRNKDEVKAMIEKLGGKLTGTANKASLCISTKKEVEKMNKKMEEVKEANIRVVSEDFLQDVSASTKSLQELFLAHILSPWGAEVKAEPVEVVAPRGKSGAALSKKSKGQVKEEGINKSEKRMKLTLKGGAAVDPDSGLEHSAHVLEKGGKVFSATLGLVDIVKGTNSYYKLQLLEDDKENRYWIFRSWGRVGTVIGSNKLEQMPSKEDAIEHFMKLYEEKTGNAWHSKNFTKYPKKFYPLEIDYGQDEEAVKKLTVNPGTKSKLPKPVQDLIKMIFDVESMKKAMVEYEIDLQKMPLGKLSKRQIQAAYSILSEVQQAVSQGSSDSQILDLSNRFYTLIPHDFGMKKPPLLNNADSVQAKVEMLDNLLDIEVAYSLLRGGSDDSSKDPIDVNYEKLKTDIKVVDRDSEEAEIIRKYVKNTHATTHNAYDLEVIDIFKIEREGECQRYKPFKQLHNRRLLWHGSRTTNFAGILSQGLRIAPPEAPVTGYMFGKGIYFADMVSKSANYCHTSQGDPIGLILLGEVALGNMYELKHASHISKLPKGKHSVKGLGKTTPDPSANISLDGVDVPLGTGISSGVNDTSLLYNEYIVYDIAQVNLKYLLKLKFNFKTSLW
Sequence of Poly [ADP-ribose] polymerase 2 (Q9UGN5 whole entry): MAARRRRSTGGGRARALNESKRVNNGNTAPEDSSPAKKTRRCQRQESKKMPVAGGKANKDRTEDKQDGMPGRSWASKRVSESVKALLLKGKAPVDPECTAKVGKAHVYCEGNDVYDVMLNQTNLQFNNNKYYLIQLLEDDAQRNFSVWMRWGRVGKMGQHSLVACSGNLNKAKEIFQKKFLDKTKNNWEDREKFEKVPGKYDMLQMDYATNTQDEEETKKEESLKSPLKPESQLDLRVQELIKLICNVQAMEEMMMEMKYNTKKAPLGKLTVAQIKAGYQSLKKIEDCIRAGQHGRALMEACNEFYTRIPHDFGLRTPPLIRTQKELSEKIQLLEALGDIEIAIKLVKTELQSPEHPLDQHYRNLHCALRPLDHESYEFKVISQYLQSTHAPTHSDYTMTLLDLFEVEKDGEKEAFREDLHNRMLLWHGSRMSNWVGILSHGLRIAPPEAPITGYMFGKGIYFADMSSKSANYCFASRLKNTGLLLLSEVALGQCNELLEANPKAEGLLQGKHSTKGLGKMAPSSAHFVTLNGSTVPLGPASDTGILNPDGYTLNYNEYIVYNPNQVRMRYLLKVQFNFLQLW

With `NC(=O)c1cccc2[nH]c(NC(=O)c3cccc(C(=O)N4CCC(Nc5ncc(F)cn5)CC4)c3)nc12`, the IC50 with MDA-MB-231 [1] is > 30 µM; with MDA-MB-468 [2], > 30 µM; in the data set on MDA-MB-436 [3] (Homo sapiens, MDA-MB-436, 24 h) it was 28.7 µM; in data set [5] it was > 10 µM; in data set [6], 0.071 µM; in [7] it was 0.065 µM. Further, in data set [4], the inhibition was 24.3%.
Take `O=C(c1ccc(F)cc1)C1CCN(CCn2c(=O)[nH]c3ccccc3c2=O)CC1` [KETANSERIN]: the results for the half-life in data set [8] and in data set [10] were 33.6 min and 29.4 min, respectively. For the same compound, the CLint scaled in data set [9] worked out at 47.7 mL/min/kg; in [11], 185 mL/min/kg.
Consider `NC(=O)c1cccc2[nH]c(NC(=O)c3cccc(C(=O)N4CCC(Nc5ncc(Br)cn5)CC4)c3)nc12`, for which the IC50 in the data set with MDA-MB-231 [1] was found to be 10.2 µM; with MDA-MB-468 [2] it was 12.4 µM; with MDA-MB-436 [3] (Homo sapiens, MDA-MB-436, 24 h), 11.1 µM; in data set [5], 0.344 µM; in [6], 0.037 µM; in data set [7] it was 0.032 µM. Further, the inhibition in [4] came out at 75.4%.
On to `CN(C)C/C=C/C(=O)Nc1ccc(C(=O)N2CCC[C@@H](Nc3ncc(Cl)c(-c4c[nH]c5ccccc45)n3)C2)cc1`, for which the IC50 in the data set with MDA-MB-231 [12] was 17.9 µM; in the data set with MDA-MB-468 [13], 14.4 µM; in the data set on MDA-MB-468 [14], 5.8 µM; in the data set on MDA-MB-436 [3] (mda-mb-436), 14.3 µM and 4.6 µM; in the data set on MDA-MB-436 [15], 18.1 µM; with MDA-MB-436 [16], 6.4 µM. For the same compound, the IC50 with MDA-MB-231 [18] came out at 7.1 µM. In addition, the outcome in the data set on MDA-MB-231 [17] was Active. The inhibition in data set [4] came out at 98.6%.
In the case of `NC(=O)c1cccc2[nH]c(NC(=O)c3cccc(C(=O)N4CCC(Nc5ncc(Cl)cn5)CC4)c3)nc12`, the half-maximal inhibitory concentration (IC50) with MDA-MB-231 [1] stood at 15.6 µM; with MDA-MB-468 [2], 14.2 µM; with MDA-MB-436 [3] (Homo sapiens, MDA-MB-436, 24 h), 12.6 µM; in data set [5], 0.554 µM; in [6] it was 0.043 µM; in [7], 0.035 µM. In addition, the inhibition in data set [4] worked out at 68.3%.
Take `O=C(c1cc(Cc2n[nH]c(=O)c3ccccc23)ccc1F)N1CCN(C(=O)C2CC2)CC1` [OLAPARIB]: the half-maximal inhibitory concentration (IC50) in the data set with MDA-MB-231 [1] stood at 3.5 µM; in the data set on MDA-MB-231 [12], 1.7 µM; with MDA-MB-468 [2], 3.4 µM; in the data set with MDA-MB-468 [13], 1.4 µM; with MDA-MB-468 [14], 0.6 µM; with MDA-MB-436 [3] (Homo sapiens, MDA-MB-436, 24 h), 4.6 µM. Further, the 50% inhibitory concentration (IC50) in the data set with MDA-MB-436 [15] was 1.5 µM; with MDA-MB-436 [16], 0.7 µM; in the data set on MDA-MB-231 [18], 0.8 µM. Further, in [4], the inhibition came to 7%.
On to `NC(=O)c1cccc2[nH]c(NC(=O)c3cccc(C(=O)N4CCC(Nc5ncc(C(F)(F)F)cn5)CC4)c3)nc12`, for which the IC50 in the data set on MDA-MB-231 [1] worked out at 10.3 µM; with MDA-MB-468 [2], 10.5 µM; in the data set on MDA-MB-436 [3] (Homo sapiens, MDA-MB-436, 24 h) it was 11.2 µM; in data set [5], 0.269 µM; in [6], 0.167 µM; in data set [7], 0.131 µM. Further, the inhibition in [4] came out at 79.4%.
`NC(=O)c1cccc2[nH]c(NC(=O)c3ccc(C(=O)N4CCC(Nc5ccc(Br)cn5)CC4)cc3)nc12`: the concentration for half-maximal inhibition (IC50) in the data set on MDA-MB-231 [1] was > 30 µM; with MDA-MB-468 [2], > 30 µM; in the data set on MDA-MB-436 [3] (Homo sapiens, MDA-MB-436, 24 h), > 30 µM. Also, in data set [4], the inhibition came out at 25.9%.
`NC(=O)c1cccc2[nH]c(NC(=O)c3ccc(C(=O)N4CCC(Nc5ncc(I)cn5)CC4)cc3)nc12`: the IC50 is 19.3 µM in the data set on MDA-MB-231 [1]; 18.5 µM in the data set on MDA-MB-468 [2]; 16.5 µM in the data set on MDA-MB-436 [3] (Homo sapiens, MDA-MB-436, 24 h). In addition, the inhibition in data set [4] stood at 61.7%.
For `NC(=O)c1cccc2[nH]c(NC(=O)c3cccc(C(=O)N4CCN(c5ccc(C(F)(F)F)cn5)CC4)c3)nc12` the same measures were 25.4 µM, 27.5 µM, 24.6 µM and 46.4%.
The matching figures for `NC(=O)c1cccc2[nH]c(NC(=O)c3cccc(C(=O)N4CCC(Nc5ccc(C(F)(F)F)cn5)CC4)c3)nc12`: > 30 µM, > 30 µM, > 30 µM and 19.8%.
For `CCc1cnc(NC2CCN(C(=O)c3ccc(C(=O)Nc4nc5c(C(N)=O)cccc5[nH]4)cc3)CC2)nc1` the same measures were 24.5 µM, 24.3 µM, 22.3 µM and 44.1%.
For the compound `NC(=O)c1cccc2[nH]c(NC(=O)c3ccc(CN4CCC(Nc5ncc(C(F)(F)F)cn5)CC4)cc3)nc12`, the 50% inhibitory concentration (IC50) in the data set on MDA-MB-231 [1] was 26.9 µM; in the data set with MDA-MB-468 [2], 27.3 µM; in the data set on MDA-MB-436 [3] (Homo sapiens, MDA-MB-436, 24 h), > 30 µM. Also, the inhibition in [4] is 34%.
As for `NC(=O)c1cccc2[nH]c(NC(=O)c3cccc(C(=O)N4CCN(c5ncc(I)cn5)CC4)c3)nc12`, the IC50 in the data set on MDA-MB-231 [1] is 20.1 µM; in the data set on MDA-MB-468 [2] it was 21.8 µM; with MDA-MB-436 [3] (Homo sapiens, MDA-MB-436, 24 h), 20.9 µM. For the same compound, in [4], the inhibition stood at 49.6%.
For `NC(=O)c1cccc2[nH]c(NC(=O)c3ccc(CN4CCC(Nc5ncc(F)cn5)CC4)cc3)nc12` the same measures were > 30 µM, > 30 µM, > 30 µM and 30.3%.

(Values after ChEMBL document CHEMBL5625183, “Discovery of a novel dual-target inhibitor of CDK12 and PARP1 that induces synthetic lethality for treatment of triple-negative breast cancer” (Eur J Med Chem, 2023).)
